Patent US4470840A, “1-Triacontanol plant growth stimulator formulations” (Biochemical Research Corporation, priority 1981, dated 1984)

Key:
[1] = system: Soybean Seedlings (cv. Prize); assay: Greenhouse trial: dry weight of seedlings; assay type: in vivo; conditions: for Dry wt.: per four plants per plot
Experimental: (§1) In general, greenhouse trials were conducted as follows: eight to twelve seeds were sown per pot in Peat-Lite® Mix and received an average of 100 ml of water per day. After plants had the third true leaf (average), the various formulations were applied to the leaves as a fine mist at air temperatures listed in Table 1. Temperatures above 20° C., preferably 25°-30° C., are preferred.
(§2) The 1-triacontanol formulation most generally used consisted of a concentrate containing 5 mg of 1-triacontanol dissolved in 1 liter of acetone, with 20 ml of the concentrate being further dissolved to 1 liter with water having a pH between 8 and 10, with over a pH of 11 also being effective. The pH was adjusted with aqueous NaOH and the concentrate added just prior to spraying.
(§3) When other plant growth substances were added to the formulations, these were added either to the concentrate in the polar organic solvent or alternatively in the aqueous solution, depending on the solubility of the plant growth substance. All metal salts were added to the water used to spray the 1-triacontanol formulations. After spraying, preferably about four to nine days or more, plants were harvested with roots, and fresh weights were obtained. Plants were then dried in an oven, preferably at a temperature below 100° C., until constant weight was obtained, and dry weight values were obtained for each plot. Subtraction of the dry weights from the fresh weights gave the water uptake weights (water content) of each plot. The weights of the above mentioned seedlings were compared to the control weights to obtain the percent increases.
(§4) It is particularly advantageous to arrange each of the potted plants in size range categories corresponding to the number of replications used. For example, if five replications are employed, plants are divided into five size categories, normally measured by the height of the plants. Treatments are then assigned randomly within each block (size category). This removes the variation due to plant size for statistical purposes, as is well practiced in the art. The resulting data is analyzed using any appropriate means, which may include the least significant difference method (L.S.D. method), Duncan's multiple range test, as used here (Biometrics, 11: 1 (1955)), or other means.

[2] = system: Winter Wheat Seedlings (cv. Augusta); assay: Greenhouse trial: dry weight of seedlings; assay type: in vivo; conditions: triacontanol 0.1 mg/l, pH 9.0
Experimental: as §1, §2, §3, §4

[3] = system: Watermelon Seedlings (cv. Dixie Queen); assay: Greenhouse trial: dry weight of seedlings; assay type: in vivo; conditions: 1-triacontanol 0.1 mg/liter, pH 9.8; for Dry wt.: per 4 plants
Experimental: as §1, §2, §3, §4

Radishes (cv. Champion) = assay: Field trial: crop yield; assay type: in vivo; conditions: 1-triacontanol 0.25 mg/liter, pH 9.7; for Dry wt. (crop yield): per twenty plants, without foliage
Experimental: (§5) Field trials were conducted in Northern Virginia on plots that were replicated at least five items. Plots consisted of single rows of plants in blocks of three or more plots, with treatments being assigned randomly within each block.
(§6) Plants were fertilized with the fertilizers described in Table 1, and sprayed at air temperatures listed in the same Table. Spraying was usually avoided under windy conditions to avoid drift. In the examples set forth herein, data were treated in a similar manner to those found in the greenhouse trials, with analysis of variance performed for each trial, and the use of a suitable statistical method for the analysis of results, preferably Duncan's multiple range test.

[4] = system: Cucumbers (cv. Straight Eight, Improved White Spine); assay: Field trial: crop yield; assay type: in vivo; conditions: for Increase (crop yield) / Fresh wt. (crop yield): cv. Improved White Spine, TRIACON-10, 1-triacontanol 0.25 mg/liter, pH 9.8
Experimental: as §5
(§7) Plants were fertilized with the fertilizers described in Table 1, and sprayed at air temperatures listed in the same Table. Spraying was usually avoided under windy conditions to avoid drift.

[5] = system: Sweet Corn (cv. Silver Queen, Early Sunglow, Jubilee); assay: Field trial: crop yield and seed size; assay type: in vivo; conditions: for Percent increase in marketable yield: triacontanol 0.25 mg/l
Experimental: as §5, §7

[6] = system: Beans (cv. Blue Lakes Stringless, Early Bird); assay: Field trial: crop yield and seed size; assay type: in vivo; conditions: 100 seeds, CaCl2 5 mM, no IAA, 1-triacontanol 0.25 mg/liter
Experimental: as §5, §7

Peas (cv. Dark Skin) = assay: Field trial: marketable yield; assay type: in vivo; conditions: 1-triacontanol 0.25 mg/liter, pH 8.7; for Fresh wt (marketable yield): per 12 plants per plot
Experimental: as §5, §6

[7] = system: Pea Seedlings (cv. Dark Skin); assay: Greenhouse trial: dry weight of seedlings; assay type: in vivo, peas; conditions: 1-triacontanol 0.1 mg/liter; for Dry wt.: sum of four plants
Experimental: as §1, §2, §3, §4

[8] = CaCl2 5 mM, 1-triacontanol 0.1 mg/liter
[9] = CaCl2 10 mM, 1-triacontanol 0.1 mg/liter
[10] = CaCl2 20 mM, 1-triacontanol 0.1 mg/liter
[11] = CaCl2 50 mM, NAA 1.5 μM (Formulation 7)
[12] = CaCl2 50.0 mM, IAA 10 μM (Formulation 14)

For `CCCCCCCCCCCCCCCCCCCCCCCCCCCCCCO` [1-Triacontanol, 1-triacontanol], the Dry wt. ([1]; CaCl2 3 mM as printed, 1-triacontanol 0.1 mg/liter) was 1.96 g, the “Increase (dry weight)” value [1, 8] was “+17%” and the Dry wt. [1, 8] was 2.30 g. The “Increase (dry weight)” value [1, 9] was “+37%”, the Dry wt. [1, 9] was 2.68 g and the “Increase (dry weight)” value [1, 10] was “+35%”. The Dry wt. [1, 10] was 2.65 g, the “Increase (dry weight)” value ([1]; line printed as "Control" but with an increase) was “+7%” and the “Increase (dry weight)” value ([2]; CaCl2 0 mM, no NAA) was 0%. The Dry wt. ([2]; CaCl2 0 mM, no NAA, average sum of four plants per plot, control 0.513 g) was 0.520 g, the Dry wt. ([2]; CaCl2 5 mM, no NAA) was 0.502 g and the “Increase (dry weight)” value ([2]; CaCl2 5 mM, no NAA) was -2%. The Dry wt. ([2]; CaCl2 10 mM, no NAA) was 0.682 g, the “Increase (dry weight)” value ([2]; CaCl2 10 mM, no NAA) was “+33%” and the Dry wt. ([2]; CaCl2 15 mM, no NAA) was 0.616 g. For the same compound, the “Increase (dry weight)” value ([2]; CaCl2 15 mM, no NAA) was “+20%”, the Dry wt. ([2]; CaCl2 20 mM, no NAA) was 0.682 g and the “Increase (dry weight)” value ([2]; CaCl2 20 mM, no NAA) was “+33%”. For the same compound, the Dry wt. ([2]; CaCl2 25 mM, no NAA) was 0.708 g, the “Increase (dry weight)” value ([2]; CaCl2 25 mM, no NAA) was “+38%” and the Dry wt. [2, 11] was 0.872 g. The “Increase (dry weight)” value [2, 11] was “+70%”, the “Percent increases (dry weight)” value ([3]; CaCl2 5 mM, no IAA) was “+38%” and the Dry wt. ([3]; CaCl2 5 mM, no IAA, sprayed Day 36, harvested Day 45, control 0.61 g) was 0.84 gm. For the same compound, the “Percent increases (dry weight)” value ([3]; CaCl2 10 mM, no IAA) was “+48%”, the Dry wt. ([3]; CaCl2 10 mM, no IAA) was 0.90 gm and the “Percent increases (dry weight)” value ([3]; CaCl2 50 mM, IAA 10 μM) was “+65%”. The Dry wt. ([3]; CaCl2 50 mM, IAA 10 μM) was 1.01 gm, the Percent increases (crop yield) (Radishes (cv. Champion); CaCl2 10 mM, no IAA) was 32% and the “Dry wt. (crop yield)” value (Radishes (cv. Champion); CaCl2 10 mM, no IAA, control 93 g) was 123 g. The “Percent increases (crop yield)” value (Radishes (cv. Champion); CaCl2 50 mM, IAA 10 μM) was “+69%”, the “Dry wt. (crop yield)” value (Radishes (cv. Champion); CaCl2 50 mM, IAA 10 μM) was 157 g and the “Increase (crop yield)” value ([4]; CaCl2 5 mM) was “+88%”. The “Fresh wt. (crop yield)” value ([4]; CaCl2 5 mM, control 9575 g) was 17980 g, the “Fresh wt. (crop yield)” value ([4]; CaCl2 50 mM) was 11725 g and the “Increase (crop yield)” value ([4]; CaCl2 50 mM) was “+22%”. The “Increase over controls (crop yield)” value ([4]; cv. Straight Eight, previous year, pH 8.7, CaCl2 4.5 mM) was 101%, the “Percent increase in marketable yield” value ([5]; cv. Early Sunglow, CaCl2 10 mM, no IAA, pH 9.8) was “+47%” and the “Percent increase in marketable yield” value ([5]; cv. Early Sunglow, CaCl2 50 mM, IAA 10 μM, pH 9.8) was “+20%”. The “Percent increase in marketable yield” value ([5]; cv. Jubilee, CaCl2 10 mM, no IAA, pH 9.7) was “+44%”, the “Percent increase in marketable yield” value ([5]; cv. Jubilee, CaCl2 50 mM, IAA 10 μM, pH 9.7) was “+31%” and the “Percent increases (size of seeds)” value ([5]; cv. Silver Queen, 500 seeds, CaCl2 9 mM, no IAA, 1-triacontanol 0.25 mg/liter) was “+47%”. The “Wt. of treated seed” value ([5]; cv. Silver Queen, 500 seeds, CaCl2 9 mM, no IAA, 1-triacontanol 0.25 mg/liter, control seed 29.7 g) was 43.8 g, the “Percent increase in marketable yield” value ([5]; cv. Silver Queen, CaCl2 10 mM, no IAA, pH 10.4) was “+49%” and the “Percent increase in marketable yield” value ([5]; cv. Silver Queen, CaCl2 50 mM, IAA 10 μM, pH 10.4) was “+16%”. The “Increases (field trial data for the previous year)” value ([5]; cv. Silver Queen, previous year, three out of three trials) was 51-54%, the “Percent increases (size of seeds)” value [6] was “+54%” and the “Wt. of treated seed” value ([6]; control seed 18.1) was 27.8 g. The “Percent increases (marketable yield)” value (Peas (cv. Dark Skin); CaCl2 10 mM, no IAA) was “+35%”, the “Fresh wt (marketable yield)” value (Peas (cv. Dark Skin); CaCl2 10 mM, no IAA, control 59) was 78 gm and the “Percent increases (marketable yield)” value (Peas (cv. Dark Skin); CaCl2 15 mM, no IAA) was “+63%”. The “Fresh wt (marketable yield)” value (Peas (cv. Dark Skin); CaCl2 15 mM, no IAA) was 97 gm, the “Percent increases (marketable yield)” value (Peas (cv. Dark Skin); CaCl2 50 mM, IAA 10 μM) was “+32%” and the “Fresh wt (marketable yield)” value (Peas (cv. Dark Skin); CaCl2 50 mM, IAA 10 μM) was 79 gm. For the same compound, the “Percent increases (marketable yield)” value (Peas (cv. Dark Skin); CaCl2 75 mM, IAA 10 μM) was “+69%”, the “Fresh wt (marketable yield)” value (Peas (cv. Dark Skin); CaCl2 75 mM, IAA 10 μM) was 100 gm and the “Percent increases (dry weight)” value ([7]; CaCl2 0.0 mM, no IAA) was -5%. The Dry wt. ([7]; CaCl2 0.0 mM, no IAA, control 0.83) was 0.79 gm, the “Percent increases (dry weight)” value ([7]; CaCl2 1.0 mM, no IAA) was “+1%” and the Dry wt. ([7]; CaCl2 1.0 mM, no IAA) was 0.84 gm. The “Percent increases (dry weight)” value ([7]; CaCl2 3.0 mM, no IAA) was -7%, the Dry wt. ([7]; CaCl2 3.0 mM, no IAA) was 0.77 gm and the “Percent increases (dry weight)” value ([7]; CaCl2 5.0 mM, no IAA) was “+7%”. The Dry wt. ([7]; CaCl2 5.0 mM, no IAA) was 0.89 gm, the “Percent increases (dry weight)” value ([7]; CaCl2 10.0 mM, no IAA) was “+18%” and the Dry wt. ([7]; CaCl2 10.0 mM, no IAA) was 0.98 gm. The “Percent increases (dry weight)” value ([7]; CaCl2 15.0 mM, no IAA) was “+33%”, the Dry wt. ([7]; CaCl2 15.0 mM, no IAA) was 1.10 gm and the “Percent increases (dry weight)” value [7, 12] was “+46%”. It also gave a Dry wt. [7, 12] of 1.21 gm.
